This passage reports GI50 and TGI results from PubChem BioAssay (NCI).

Each structure is given as a SMILES string.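 The compound was tested at five concentrations on cells cultured in 96-well plates, with a 48-hour exposure period. The concentration for 50% growth inhibition is given as GI50. At the TGI there is no net growth.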

Common to all, as to assay: DTP human tumour cell line panel, 48 h
In experiment [1] the test system is BT-549 breast.
Experiment [2] deals with CAKI-1 renal.
The subject of experiment [3] is CCRF-CEM leukemia.
The subject of experiment [4] is COLO 205 colon.
In experiment [5] the test system is DU-145 prostate.
The subject of experiment [6] is HCT-15 colon.
In experiment [7] the test system is MDA-MB-435.
Experiment [8] relates to OVCAR-3 ovarian.
The subject of experiment [9] is SK-OV-3 ovarian.
For experiment [10], the system named is SW-620 colon.

With `C/C(=N\NC(=O)c1cccc(S(=O)(=O)N2CCN(C)CC2)c1)c1cc(Cl)ccc1O`, the GI50 was 1.94 µM in experiment [1]; 0.567 µM in experiment [2]; 0.422 µM in experiment [3]; 0.387 µM in [4]; 1.15 µM in experiment [5]; 0.27 µM in [6]. In addition, the GI50 in experiment [7] was 2.74 µM; in [8], 0.385 µM; in experiment [9], 0.938 µM; in experiment [10], 0.705 µM. Further, the TGI is 36 µM in [1]; 27.5 µM in experiment [2]; more than 100 µM in experiment [3]; 15.3 µM in experiment [4]; more than 100 µM in experiment [5]; more than 43.6 µM in experiment [6]. The TGI in [7] was more than 100 µM; in experiment [8], more than 100 µM; in experiment [9], more than 54.6 µM; in [10] it was more than 94.9 µM.

Turning to `CC[C@]12C=CCN3CC[C@@]4(c5ccc(OC)cc5N(C)[C@H]4[C@@](O)(C(=O)OC)[C@@H]1OC(=O)CCCC[P+](c1ccccc1)(c1ccccc1)c1ccccc1)[C@@H]32`, the GI50 is 0.465 µM in [1]; 3.61 µM in [2]; 0.789 µM in [3]; 0.242 µM in [4]; 0.875 µM in [5]; 19.4 µM in experiment [6]. Besides, the GI50 in experiment [7] is 0.359 µM; in [8], 0.41 µM; in [9], 0.725 µM; in experiment [10], 1.14 µM. The TGI in [1] was 1.94 µM; in [2] it was 13.7 µM; in experiment [3] it was 6.46 µM; in experiment [4], 0.586 µM; in [5], 13.2 µM; in [6], 43.6 µM. Also, the TGI in experiment [7] is 1.31 µM; in experiment [8] it was 2.23 µM; in experiment [9] it was 5.9 µM; in experiment [10], 12.6 µM.

Turning to `CCCCCCCCCCCCCCCCSS(C)(=O)=O`, the TGI in experiment [1] is more than 100 µM; in experiment [2] it was 26.1 µM; in [3], 18.4 µM; in experiment [4] it was 47.4 µM; in [5], more than 100 µM; in experiment [6], 39.2 µM. For the same compound, the TGI in [7] is more than 100 µM; in experiment [8] it was 31.2 µM; in [9] it was more than 100 µM; in experiment [10] it was 13.2 µM.

For the compound `Nc1c(C(=O)c2cccc(C(O)(CO)CO)c2)cnn1-c1ccc(F)cc1`, the GI50 in [1], in experiment [2], in experiment [3], in experiment [4], in [5] and in [6] was more than 25 µM each time. For the same compound, the GI50 in [7], in experiment [8], in [9] and in experiment [10] was more than 25 µM in each case. The TGI in experiment [1], in experiment [2], in [3], in [4], in [5] and in experiment [6] was more than 25 µM in each case. Moreover, the TGI in experiment [7], in experiment [8], in [9] and in [10] was more than 25 µM each time.

Turning to `COc1ccc(-c2cc(=O)c3c(OC)c(O)c(OC)cc3o2)cc1`, the TGI in [1], in experiment [2], in [3], in [4], in [5] and in [6] was more than 100 µM each time. In addition, the TGI in experiment [7], in [8], in [9] and in experiment [10] was more than 100 µM throughout.

As for `COc1ccc(/C=C(/C(=O)N2CCN(c3ccc(C)cc3)CC2)c2cc(OC)c(OC)c(OC)c2)cc1N`, the GI50 in [1] is 0.199 µM; in experiment [2], 0.465 µM; in experiment [3], 0.394 µM; in [4], 0.339 µM; in [5], 0.307 µM; in experiment [6], 0.337 µM. In addition, the GI50 in [7] was 0.108 µM; in experiment [8] it was 0.239 µM; in experiment [9] it was 0.755 µM; in experiment [10] it was 0.407 µM. The TGI was 4.79 µM in experiment [1]; more than 100 µM in experiment [2]; more than 100 µM in experiment [3]; 1.47 µM in [4]; more than 76.3 µM in experiment [5]; more than 100 µM in experiment [6]. Also, the TGI in experiment [8] was 0.921 µM; in experiment [9], more than 100 µM; in experiment [10] it was more than 100 µM.

Consider `COc1ccc(C(=O)OC2C(OC3C(O)COC(O[C@H]4C[C@H]5[C@@H]6CC=C7C[C@@H](O)CC[C@]7(C)[C@H]6CC[C@]5(C)[C@H]4[C@H](C)C(=O)CCC(C)C)C3OC(=O)C(C)C)OCC(O)C2O)cc1` (some centres undefined), for which the GI50 in [1] is less than 0.00275 µM; in experiment [2] it was 0.0172 µM; in experiment [3], 0.00574 µM; in [4] it was 0.0575 µM; in [5] it was 0.017 µM; in [6], 0.218 µM. Further, the 50% growth inhibitory concentration (GI50) in experiment [7] was 0.0154 µM; in [8] it was 0.884 µM; in experiment [9], 0.0127 µM; in [10] it was 0.0125 µM. Moreover, the TGI in [1] amounted to 3.26 µM; in [2] it was 1.64 µM; in [3], 0.0317 µM; in experiment [4], 0.325 µM; in experiment [5], 4.65 µM; in experiment [6], 3.92 µM. The TGI worked out at 0.216 µM in experiment [7], 5.88 µM in experiment [8], 1.52 µM in experiment [9] and 0.389 µM in experiment [10].

With `CS(=O)(=O)c1nccc(-c2c(-c3cccc(OCc4ccccc4)c3)nc3sccn23)n1`, the GI50 was 11.6 µM in experiment [1]; 4.58 µM in [2]; more than 30.1 µM in [3]; 25.3 µM in experiment [4]; 1.76 µM in [5]; 12 µM in experiment [6]. Moreover, the GI50 is 13.3 µM in experiment [7], 14.4 µM in experiment [8], 23.3 µM in experiment [9] and 4.67 µM in experiment [10]. Besides, the TGI in experiment [1] was more than 100 µM; in experiment [2] it was more than 100 µM; in [3], more than 100 µM; in [4], more than 100 µM; in experiment [5], 3.31 µM; in experiment [6], more than 100 µM. Moreover, the TGI in [7], in experiment [8], in [9] and in experiment [10] was more than 100 µM in each case.

As to `NNC(=O)C(O)C(O)C(O)CO` (centres undefined), the TGI in experiment [1], in experiment [2], in experiment [3], in experiment [4], in experiment [5] and in [6] was more than 100 µM each time. The TGI in experiment [7], in [8], in [9] and in experiment [10] was more than 100 µM throughout.

One may read the GI50 as the concentration that inhibits growth by half. The term TGI denotes the concentration giving total growth inhibition. A low value points to greater sensitivity of the cells.
